Experimental findings from US20200392116A1, “SUBSTITUTED HETEROCYCLES AS c-MYC TARGETING AGENTS” (NORTHWESTERN UNIVERSITY, priority 2019, published 2020) are described below.

Structures are written as SMILES. Like-named read-outs stand apart in the source and are kept apart here. Some results are limits rather than exact numbers.

Assay [1] can be described thus: Potency code of Table 2 (assay not stated).
For assay [2], the system named is MYC transcriptional activity (c-Myc E-box-luciferase reporter, MycCap cells). Nature of the assay: MYC E-box luciferase reporter assay. The format is cell-based. The settings on record: Mus musculus, Myc-CaP, read-out: Ebox reporter: IC50. How it is done:
To test the compounds, we evaluated the in silico hits in a MYC E-Box luciferase reporter assay to measure the effects of these compounds (referred to as Min-1 to Min-32) on MYC transcriptional activity. […] (See FIG. 2).
MycCap cells stably expressing luciferase with CMV promoter (MycCap-luc) or c-Myc E-box-luciferase reporter (MycCap Ebox-luc) were plated at 10000 cells per well in 96 well white-wall plate. Serial dilutions of 361 were treated next day. At 4 hours of treatment, luminescence signal was determined immediately after adding 150 μg/ml of Luciferin to the well. (See FIG. 12).
(A reporter such as luciferase makes a cellular process visible.)

In assay [3] the test system is CMV reporter. In words: CMV reporter assay (control reporter beside the Ebox reporter). The format is cell-based.

As to `N#Cc1ccc(COc2ccc(-c3cc(C(F)(F)F)[nH]n3)c(O)c2-c2ccc(Cl)c(C(F)(F)F)c2)cc1` [NUCC-0201911], the Potency code entry in assay [1] is “+ (>40 +)”.

On to `Cn1nc(-c2ccc(OCc3ccc(C#N)cc3)c(-c3ccc(Cl)c(C(F)(F)F)c3)c2O)cc1C(F)(F)F` [NUCC-0201912], for which the Potency code result in assay [1] is listed as “+ (>40 +)”.

With `Cn1nc(C(F)(F)F)cc1-c1ccc(OCc2ccc(C#N)cc2)c(-c2ccc(Cl)c(C(F)(F)F)c2)c1O` [NUCC-0201913], the Potency code entry in assay [1] is given as “+ (>40 +)”.

For the compound `Cn1nc(C(F)(F)F)cc1-c1ccc(CNc2ccc(Cl)cc2)c(-c2ccc(Cl)c(C(F)(F)F)c2)c1O` [NUCC-0202414], the IC50 is 5 to 10 µM in assay [2] (class symbols) and above 50 µM in assay [3].

In the case of `Cn1nc(C(F)(F)F)cc1-c1ccc(COc2ccc(Cl)cc2)c(-c2ccc(Cl)c(C(F)(F)F)c2)c1O` [NUCC-0202416], the IC50 was below 5 µM in assay [2] (class symbols) and above 50 µM in assay [3].

Take `Cn1nc(-c2ccc(CNc3ccc(Cl)cc3)c(-c3ccc(Cl)c(C(F)(F)F)c3)c2O)cc1C(F)(F)F` [NUCC-0202417]: the IC50 in assay [2] (given as numeric bound) and in assay [3] was above 50 µM each time.

For the compound `CC(Oc1ccc(-c2cc(C(F)(F)F)nn2C)c(O)c1-c1ccc(Cl)c(C(F)(F)F)c1)c1ccc(Cl)cc1` (centres unmarked) [NUCC-0202418], the IC50 is 5 to 10 µM in assay [2] (class symbols) and above 50 µM in assay [3].

`Cn1nc(-c2ccc(COc3ccc(Cl)cc3)c(-c3ccc(Cl)c(C(F)(F)F)c3)c2O)cc1C(F)(F)F` [NUCC-0202421]: the IC50 in assay [2] (given as numeric bound) and in assay [3] was above 50 µM each time.

For the compound `Cn1nc(-c2ccc(OCc3ccc(Cl)cc3)c(Oc3ccc(F)cn3)c2O)cc1C(F)(F)F` [NUCC-0202422], the IC50 in assay [2] (given as numeric bound) and in assay [3] was above 50 µM in each case.

`Cn1nc(C(F)(F)F)cc1-c1ccc(N(Cc2ccc(Cl)cc2)C(=O)c2ccc(C(F)(F)F)c(Cl)c2)cc1O` [NUCC-0202423]: the IC50 in assay [2] (class symbols) was below 5 µM; in assay [3], above 50 µM.

As to `Cn1nc(-c2ccc(N(Cc3ccc(Cl)cc3)C(=O)c3ccc(C(F)(F)F)c(Cl)c3)cc2O)cc1C(F)(F)F` [NUCC-0202424], the IC50 in assay [2] (given as numeric bound) and in assay [3] was above 50 µM in each case.

Consider `COCCOc1ccc(-c2cc(C(F)(F)F)nn2C)c(O)c1-c1ccc(Cl)c(C(F)(F)F)c1` [NUCC-0202425], for which the IC50 in assay [2] (class symbols) is 10 to 50 µM; in assay [3] it was above 50 µM.

On to `COCCOc1ccc(-c2cc(C(F)(F)F)n(C)n2)c(O)c1-c1ccc(Cl)c(C(F)(F)F)c1` [NUCC-0202426], for which the half-maximal inhibitory concentration (IC50) in assay [2] (given as numeric bound) and in assay [3] was above 50 µM throughout.

For the compound `Cn1nc(C(F)(F)F)cc1-c1ccc(OC2CCOCC2)c(-c2ccc(Cl)c(C(F)(F)F)c2)c1O` [NUCC-0202427], the IC50 was 10 to 50 µM in assay [2] (class symbols) and above 50 µM in assay [3].

For the compound `Cn1nc(-c2ccc(OC3CCOCC3)c(-c3ccc(Cl)c(C(F)(F)F)c3)c2O)cc1C(F)(F)F` [NUCC-0202428], the IC50 in assay [2] (given as numeric bound) and in assay [3] was above 50 µM throughout.

With `COc1ccc(-c2cc(C(F)(F)F)nn2C)c(O)c1-c1ccc(Cl)c(C(F)(F)F)c1` [NUCC-0202429], the IC50 was below 5 µM in assay [2] (class symbols) and above 50 µM in assay [3].

Take `COc1ccc(-c2cc(C(F)(F)F)n(C)n2)c(O)c1-c1ccc(Cl)c(C(F)(F)F)c1` [NUCC-0202430]: the IC50 in assay [2] (given as numeric bound) and in assay [3] was above 50 µM in each case.

In the case of `Cn1nc(C(F)(F)F)cc1-c1ccc(OC2CCNCC2)c(-c2ccc(Cl)c(C(F)(F)F)c2)c1O` [NUCC-0202431], the IC50 is 10 to 50 µM in assay [2] (class symbols) and 39 µM in assay [3].

With `Cn1nc(-c2ccc(OC3CCNCC3)c(-c3ccc(Cl)c(C(F)(F)F)c3)c2O)cc1C(F)(F)F` [NUCC-0202432], the values for the IC50 in assay [2] (class symbols) and in assay [3] were 10 to 50 µM and 28 µM, respectively.

In the case of `Oc1c(-c2cc(C(F)(F)F)n[nH]2)ccc(NCc2ccc(Cl)cc2)c1-c1ccc(Cl)c(C(F)(F)F)c1` [NUCC-0202433], the IC50 is 5 to 10 µM in assay [2] (class symbols) and above 50 µM in assay [3].

As for `O=C(c1ccc(C(F)(F)F)c(Cl)c1)N(Cc1ccc(Cl)cc1)c1ccc(-c2cc(C(F)(F)F)n[nH]2)c(O)c1` [NUCC-0202434], the IC50 in assay [2] (class symbols) is below 5 µM; in assay [3] it was 40 µM.

As to `Oc1c(-c2cc(C(F)(F)F)n[nH]2)ccc(OCc2ccc(Cl)cc2)c1Oc1ccc(F)cn1` [NUCC-0202435], the IC50 was 10 to 50 µM in assay [2] (class symbols) and above 50 µM in assay [3].

With `O=c1cc(C(F)(F)F)oc2cc(NCc3ccc(Cl)cc3)ccc12` [NUCC-0202436], the IC50 was 10 to 50 µM in assay [2] (class symbols) and above 50 µM in assay [3].

For the compound `CC(Oc1ccc(-c2cc(C(F)(F)F)n(C)n2)c(O)c1-c1ccc(Cl)c(C(F)(F)F)c1)c1ccc(Cl)cc1` (centres unmarked) [NUCC-0202437], the IC50 in assay [2] (given as numeric bound) and in assay [3] was above 50 µM each time.

As for `NC(=O)c1cc(-c2ccc(OCc3ccc(Cl)cc3)c(-c3ccc(Cl)c(C(F)(F)F)c3)c2O)[nH]n1` [NUCC-0202521], the IC50 in assay [2] (class symbols) was 10 to 50 µM; in assay [3], 34 µM.

Take `CNC(=O)c1cc(-c2ccc(OCc3ccc(Cl)cc3)c(-c3ccc(Cl)c(C(F)(F)F)c3)c2O)[nH]n1` [NUCC-0202522]: the IC50 in assay [2] (class symbols) is 10 to 50 µM; in assay [3], 43 µM.

`CN(C)C(=O)c1cc(-c2ccc(OCc3ccc(Cl)cc3)c(-c3ccc(Cl)c(C(F)(F)F)c3)c2O)[nH]n1` [NUCC-0202523]: the IC50 in assay [2] (given as numeric bound) and in assay [3] was above 50 µM each time.

`Cn1nc(C(=O)O)cc1-c1ccc(OCc2ccc(Cl)cc2)c(-c2ccc(Cl)c(C(F)(F)F)c2)c1O` [NUCC-0202524]: the IC50 in assay [2] (class symbols) is 10 to 50 µM; in assay [3], above 50 µM.

Turning to `Cn1nc(-c2ccc(OCc3ccc(Cl)cc3)c(-c3ccc(Cl)c(C(F)(F)F)c3)c2O)cc1C(=O)O` [NUCC-0202525], the IC50 in assay [2] (class symbols) is 10 to 50 µM; in assay [3], above 50 µM.

On to `Cn1nc(C(N)=O)cc1-c1ccc(OCc2ccc(Cl)cc2)c(-c2ccc(Cl)c(C(F)(F)F)c2)c1O` [NUCC-0202526], for which the IC50 in assay [2] (class symbols) is 10 to 50 µM; in assay [3], above 50 µM.

Turning to `CN(C)C(=O)c1cc(-c2ccc(OCc3ccc(Cl)cc3)c(-c3ccc(Cl)c(C(F)(F)F)c3)c2O)n(C)n1` [NUCC-0202527], the values for the IC50 in assay [2] (class symbols) and in assay [3] were 10 to 50 µM and above 50 µM, respectively.

As for `C=C(C)c1cc(-c2ccc(OCc3ccc(Cl)cc3)c(-c3ccc(C)c(C)c3)c2C)nn1C` [NUCC-0202528], the values for the IC50 in assay [2] (class symbols) and in assay [3] were 10 to 50 µM and 28 µM, respectively.

Take `CNC(=O)c1cc(-c2ccc(OCc3ccc(Cl)cc3)c(-c3ccc(Cl)c(C(F)(F)F)c3)c2O)nn1C` [NUCC-0202529]: the values for the IC50 in assay [2] (class symbols) and in assay [3] were 10 to 50 µM and above 50 µM, respectively.

As for `CCOC(=O)c1cc(-c2ccc(OCc3ccc(Cl)cc3)c(-c3ccc(Cl)c(C(F)(F)F)c3)c2O)[nH]n1` [NUCC-0202530], the IC50 in assay [2] (class symbols) was 10 to 50 µM; in assay [3], above 50 µM.

On to `CN(C)C(=O)c1cc(-c2ccc(OCc3ccc(Cl)cc3)c(-c3ccc(Cl)c(C(F)(F)F)c3)c2O)nn1C` [NUCC-0202531], for which the IC50 in assay [2] (given as numeric bound) and in assay [3] was above 50 µM in each case.

As to `Cc1cc(-c2ccc(OCc3ccc(Cl)cc3)c(-c3ccc(Cl)c(C(F)(F)F)c3)c2O)[nH]n1` [NUCC-0202532], the IC50 in assay [2] (class symbols) was 10 to 50 µM; in assay [3], above 50 µM.

For `Cc1cc(-c2ccc(OCc3ccc(Cl)cc3)c(-c3ccc(Cl)c(C(F)(F)F)c3)c2O)n(C)n1` [NUCC-0202533], the IC50 is 10 to 50 µM in assay [2] (class symbols) and above 50 µM in assay [3].

Regarding `Cc1cc(-c2ccc(OCc3ccc(Cl)cc3)c(-c3ccc(Cl)c(C(F)(F)F)c3)c2O)nn1C` [NUCC-0202534], the IC50 in assay [2] (given as numeric bound) and in assay [3] was above 50 µM in each case.

In the case of `Oc1cc(-c2ccc(OCc3ccc(Cl)cc3)c(-c3ccc(Cl)c(C(F)(F)F)c3)c2O)[nH]n1` [NUCC-0202535], the figures for the IC50 in assay [2] (class symbols) and in assay [3] were 10 to 50 µM and above 50 µM, respectively.

For `Oc1cc(OCc2ccc(Cl)cc2)ccc1-c1[nH]nc(C(F)(F)F)c1Oc1ccc(Cl)c(F)c1` [NUCC-0202536], the IC50 was 5 to 10 µM in assay [2] (class symbols) and 44 µM in assay [3].

As for `Cn1nc(C(F)(F)F)c(Oc2ccc(Cl)c(F)c2)c1-c1ccc(OCc2ccc(Cl)cc2)cc1O` [NUCC-0202537], the IC50 in assay [2] (class symbols) is 5 to 10 µM; in assay [3], 40 µM.

As for `Cn1nc(C(F)(F)F)cc1-c1ccc(OCc2ccc(Cl)cc2)c(-c2ccc(Cl)c(C(F)(F)F)c2)c1O` [NUCC-0202538], the IC50 in assay [2] (given as numeric bound) and in assay [3] was above 50 µM throughout.

`CNC(=O)c1cc(-c2ccc(OCc3ccc(Cl)cc3)c(-c3ccc(Cl)c(C(F)(F)F)c3)c2O)n(C)n1` [NUCC-0202635]: the results for the IC50 in assay [2] (class symbols) and in assay [3] were 10 to 50 µM and above 50 µM, respectively.

Regarding `Oc1cc(OCc2ccc(Cl)cc2)ccc1-c1[nH]nc(C(F)(F)F)c1Oc1ccc(F)c(Cl)c1` [NUCC-0202636], the IC50 is 5 to 10 µM in assay [2] (class symbols) and 41 µM in assay [3].

As for `Cn1nc(C(F)(F)F)c(Oc2ccc(F)c(Cl)c2)c1-c1ccc(OCc2ccc(Cl)cc2)cc1O` [NUCC-0202637], the IC50 in assay [2] (class symbols) is 5 to 10 µM; in assay [3], 43 µM.

As for `Cn1nc(O)cc1-c1ccc(OCc2ccc(Cl)cc2)c(-c2ccc(Cl)c(C(F)(F)F)c2)c1O` [NUCC-0202638], the IC50 is 10 to 50 µM in assay [2] (class symbols) and above 50 µM in assay [3].

As for `COc1c(C(F)(F)F)n[nH]c1-c1ccc(OCc2ccc(Cl)cc2)cc1O` [NUCC-0202639], the IC50 in assay [2] (class symbols) was 5 to 10 µM; in assay [3], 32 µM.

With `Cn1nc(C(F)(F)F)cc1-c1ccc(OCc2ccc(Cl)cc2)c(-c2ccc(Cl)c(C(F)(F)F)c2)n1` [NUCC-0202640], the IC50 in assay [2] (given as numeric bound) and in assay [3] was above 50 µM in each case.

In the case of `Cn1nc(C(F)(F)F)cc1-c1ccc(OCc2ccc(Cl)cc2)c(-c2ccc(Cl)c(C(F)(F)F)c2)c1F` [NUCC-0202641], the IC50 in assay [2] (given as numeric bound) and in assay [3] was above 50 µM in each case.

The term IC50 denotes the concentration that gives 50% inhibition.
